{"source": "patent US20130156753A1", "about": "(UNIVERSITY OF ROCHESTER, priority 2010, published 2013)", "key": {"HDAC5 nuclear export": {"test_system": "HDAC5 nuclear export", "experiment": "PE-induced HDAC5 nuclear export in neonatal rat ventricular cardiomyocytes (NRVMs)", "assay_type": "cell-based", "description": "A, B, Cos7 cells were co-transfected with expression vectors encoding GFP-tagged HDAC5 (GFP-HDAC5) and constitutively active protein kinases as indicated, and then exposed to phorbol-12-myristate-13-acetate (PMA, […]) for 3 hours. […] A-F, The cells were fixed and the subcellular localization of GFP-HDAC5 was visualized by fluorescence microscopy.\n(§1) The cells were fixed and GFP-HDAC5 localization was analyzed by fluorescence microscopy. α-actinin was detected by immunofluorescence using an antibody against α-actinin and a fluorescein-conjugated secondary antibody. The nuclei were stained with DAPI.\nas §1, with “DAPI. B, PKA expression in cell lysates were determined by Western blot using PKA antibody.” for “DAPI.”\nThe cells were fixed and endogenous HDAC5 localization was analyzed by fluorescence microscopy. HDAC5 and α-actinin was detected by immunocytochemistry with antibody against HDAC5 and α-actinin.\nThe cells were fixed and GFP-HDAC5 subcellular localization was analyzed by fluorescence microscopy and stained with an α-actinin antibody and DAPI.\nCos7 cells were grown in Dulbecco's Modified Eagle's Medium (DMEM) supplemented with fetal bovine serum (10%), 1-glutamine and penicillin/streptomycin. Primary cultures of neonatal rat cardiac ventricular myocytes (NRVMs) from 1- to 2-day-old Sprague-Dawley rats (Charles River Laboratories) were prepared. In brief, NRVMs were dispersed from the ventricles by digestion with collagenase type II (Worthington). Cells were cultured in Dulbecco's modified Eagle's medium (DMEM) supplemented with 1,000 mg/L D-glucose, L-glutamine, and 110 mg/L sodium pyruvate (GIBCO), fetal bovine serum (10%), and penicillin/streptomycin at 37° C. in a 5% CO2 humidified atmosphere for 2-3 days. For inducer or inhibitor studies, cells were pretreated with various inducers or inhibitors for 30 min in serum-free medium. Primary cultures of adult rat cardiomyocytes were prepared from 200-250g male Sprague-Dawley rats. Briefly, rats were anesthetized, hearts excised and placed in Krebs buffer and perfused and digested with endotoxin-free collagenase II (Worthington). This protocol typically yielded approximately 4×10^6 cells per heart, with ˜85% surviving, rod-shaped Ca2+-tolerant cells. Myocytes were allowed to attach to 20 μg/ml laminin coated plates in Modified Eagle Medium (MEM) containing 2.5% FBS, 25 mmol/L HEPES, 5 mmol/L taurine, 2 mmol/L carnitine, 2 mmol/L creatinine, 100 IU/ml penicillin, and 100 μg/ml streptomycin for 2 hrs before replacing with serum-free MEM containing 25 mmol/L HEPES, 5 mmol/L taurine, 2 mmol/L carnitine, 2 mmol/L creatinine, 100 IU/ml penicillin, and 100 μg/ml streptomycin.\nAdenoviruses encoding Flag-tagged HDAC5 wild-type (WT), GFP-tagged HDAC5-WT, and YFP-tagged HDAC7-WT were generated as described previously (Ha C H, et al. (2008) Protein Kinase D-dependent Phosphorylation and Nuclear Export of Histone Deacetylase 5 Mediates Vascular Endothelial Growth Factor-induced Gene Expression and Angiogenesis. J Biol Chem 283(21):14590-14599; Ha C H et al. (2008) VEGF stimulates HDAC7 phosphorylation and cytoplasmic accumulation modulating matrix metalloproteinase expression and angiogenesis. Arterioscler Thromb Vasc Biol 28(10):1782-1788). Adenovirus expressing GFP-tagged HDAC5-S280A mutant, GFP-tagged HDAC5-S280D mutant and Flag-tagged HDAC5-S280A mutant were generated by using ViraPower Adenoviral Expression System (Invitrogen) according to the manufacturer's protocol. Adenovirus containing β-galactosidase (LacZ) or GFP was used as a control. […]"}, "NRVMs": {"test_system": "NRVMs", "experiment": "Cardiomyocyte hypertrophy (cell size, α-actinin immunostaining) in NRVMs", "assay_type": "cell-based, rat", "description": "A-H, Cardiomyocyte size was detected by immunostaining with anti-α-actinin antibody. […] The cells were fixed and analyzed for GFP-HDAC5 localization, α-actinin staining and nuclear DAPI staining *, p<0.05 versus without PE; #, p<0.05 versus with PE alone. I, Schematic model for PKA-dependent regulation of HDAC5 subcellular localization and gene transcription.\nCardiomyocyte protein marker α-actinin was detected by immunofluorescence using antibody against α-actinin and fluorescein-conjugated secondary antibody.\nAfter 24 hour culture, cells were maintained in serum-free DMEM medium for additional 24 hours, and then exposed to various inducers or inhibitors (for 30 minutes) prior to PE or PMA stimulation for indicated times. The cells were washed with PBS and fixed with 3.7% formaldehyde in PBS. Images were captured at a magnification of ×60, using a fluorescence microscope (Olympus BX51) equipped with a digital camera and Spot software system (RT Color Diagnostic Instruments). For analysis of the myocyte marker, sarcomeric α-actinin antibody and DAPI in neonatal cardiomyocyte, immunocytochemistry were performed according to a standard protocol. For subcellular localization of endogenous HDAC5 in cardiomyocyes, we fixed cells and used the detergent Saponin (Sigma, 84510) to make cells permeable, and then performed immunocytochemistry with anti-HDAC5 antibody (Santa Cruz, sc-11419). For subcellular localization of HDAC5, total around 200 cells were counted in each condition. For cardiomyocyte size, total myocyte surface areas were calculated using NIH Image J software, and expressed as the average of 100 randomly selected cells per condition."}, "[1]": {"conditions": "NRVMs with GFP-HDAC5-WT, cAMP 30 min, PE 24 hours"}}, "data": [{"smiles": "CCCC(=O)Nc1ncnc2c1ncn2[C@@H]1O[C@@H]2COP(=O)(O)O[C@H]2[C@H]1OC(=O)CCC", "note": "[cAMP, Dibutyryl-cAMP]", "values": [{"measurement": "HDAC5 translocation from nucleus to cytoplasm after PE", "setting": "HDAC5 nuclear export; [1]", "value": "prevented from translocating from the nucleus to the cytoplasm"}, {"measurement": "PE-induced nuclear export of GFP-HDAC5 S280A", "setting": "HDAC5 nuclear export; NRVMs, S280A mutant, cAMP 500 μM or forskolin 10 μM 30 min, PE 3 hours", "value": "resistant to PKA inhibition"}, {"measurement": "PE-stimulated HDAC5 nuclear export", "setting": "HDAC5 nuclear export; NRVMs, adenoviral GFP-HDAC5, 30 min pretreatment, PE 10 μM 3 hours", "value": "markedly inhibited PE-stimulated HDAC5 nuclear export"}, {"measurement": "PE-induced endogenous HDAC5 nuclear export", "setting": "HDAC5 nuclear export; NRVMs, endogenous HDAC5, cAMP 500 μM 30 min, PE 10 μM 3 hours", "value": "same inhibitory effect"}, {"measurement": "size of cardiomyocytes after PE", "setting": "NRVMs; [1]", "value": "decreased the size of cardiomyocytes"}, {"measurement": "PE/Angiotensin II-induced cardiomyocyte hypertrophy", "setting": "NRVMs; NRVMs, forskolin 10 μM, cAMP 500 μM, Rolipram 10 μM 30 min, PE or Angiotensin II 24 hours", "value": "inhibit PE/Angiotensin II-induced cardiomyocyte hypertrophy"}]}]}
